Measurements reported in patent publication US7223733B2, “Modulation of TRIP-Br function and method of treating proliferative disorders” (National University of Singapore, priority 2004, dated 2007).
[invdT] = inverted (3'-3') thymidine

Assays:
Type in all cases: cell-based, human
WI-38 cells = test: Colony formation assay of WI-38 cells (crystal violet); conditions: WI-38, serum-induced, 72 h
Method: DNA enzyme transfection. WI-38 cells were rendered quiescent by cultivation in serum-free medium for 72 h before being transfected with DNA enzyme (0.1 μM) using Superfect as reported previously (Santiago, F. S., et al. Nat Med 5, 1264-1269 (1999)) in accordance to manufacturer's recommendations (Qiagen).
Cell proliferation assays. For the BrdU incorporation assays, growth-quiescent WI-38 cells in 96-well dishes were transfected with DNA enzyme and/or 100 ng of pCMV/E2F1, pCMV/DP1, pRSV/Cyclin E, or pCMV/Cdk2 and then exposed to Bromodeoxyuridine (BrdU, 100 μM) in the presence or absence of 10% FBS for 20 h. Bromodeoxyuridine (BrdU) incorporation was monitored with a calorimetric ELISA assay using a cell proliferation kit according to manufacturer's recommendations (Boehringer Mannheim). For manual cell count, growth-quiescent WI-38 cells in 24-well dishes were transfected with DNA enzyme and then exposed to 10% FBS for 72 h. The cells were rinsed with PBS, pH 7.4, and trypsinized, and 10 μl of cell suspension was taken from each sample and mixed with equal volume of trypan blue stain (Sigma, 0.4% w/v in 1×PBS). The number of unstained cells was enumerated manually using a hemocytometer. […] Cells were stained in situ with crystal violet (0.75% w/v hexamethyl-p-rosaniline chloride [SIGMA], 50% ethanol, 1.75% w/v paraformaldehyde, 0.25% w/v NaCl) for 10 min, and then rinsed thoroughly with deionized water to remove excess stains.
FIG. 12: (A) E-Br1 or E-Br2 inhibits cell proliferation. Sub-confluent WI-38 cells were serum-starved for 72 h. Following DNA enzyme transfection, the cultures were re-stimulated with serum and allowed to proliferate. After 72 h, cells were harvested for viable cell count analysis. 10 μl of cell suspension from each sample was mixed with equal volume of 0.4% trypan blue stain. The number of unstained cells was enumerated manually using a hemocytometer. Data represent the average of at least two independent experiments. […] (B) E-Br1 or E-Br2 suppresses colony formation. Sub-confluent WI-38 cells were serum-starved for 72 h. […]

CCNE gene = test: Semi-quantitative RT-PCR of CCNE in serum-stimulated WI-38 cells; conditions: WI-38, serum stimulation
Method: Semi-quantitative RT-PCR. Following various treatments, WI-38 cells in 6-well culture dish were subjected to total RNA extraction using the TRIZOL® Reagent (Life Technologies). Total RNA (4 μg) was reversed transcribed using oligo-dT and M-MLV reverse transcriptase in a total reaction volume of 20 μl. Polymerase Chain Reactions (PCR) were carried out on 3 μl cDNA sample in the presence of […] deoxyribonucleotide triphosphates (dNTPs) and 40 μM of specific primer pairs in a total reaction volume of 50 μl. The cycling profile for PCR was as follow: 30 cycles of denaturation (94° C., 30 sec), annealing (51° C., 30 sec) and extension (72° C., 2 min), with a 2-minute initial denaturation step at 94° C. and a 10-minute polishing step at 72° C. at the end. Sequences of gene-specific primers are available upon request. Post-PCR samples were analyzed by agarose gel electrophoresis.
FIG. 14: (A) E-Br1 or E-Br2 attenuates mitogen-stimulated CCNE gene induction. Sub-confluent WI-38 cells were serum-starved for 72 h. Following DNA enzyme transfection, the cultures were re-stimulated with serum and allowed to proliferate. After 20 h, cells were harvested and total RNA extracted for semi-quantitative RT-PCR to assess CCNE expression. β-actin was included as an internal control. PCR products were resolved by agarose gel electrophoresis and ethidium bromide-stained DNA bands were visualized under UV. […]

[1] = test system: cyclin E, Cdk4, cyclin D1 and p27^KIP1; test: Western blot of cyclin E, Cdk4, cyclin D1 and p27KIP1 in WI-38 cells; conditions: WI-38, 20 h
Method: Western blotting analysis. Cells in 6-well culture dish were washed in cold PBS and lysed in sample buffer (50 mM Tris-Cl, pH 6.8, 2% SDS, 10% glycerol, 0.1% bromophenol blue and 100 mM DTT). Whole cell lysates were heated at 100° C. for 10 minutes prior to electrophoresis. Separation of complex protein mixtures was achieved using a discontinuous polyacrylamide gel electrophoresis system consisting of a stacking gel and a 10% separating gel. Electrophoresis was performed with 1× running buffer (25 mM Tris pH 8.6, 0.19 M glycine, 0.1% SDS) in a mini vertical electrophoresis apparatus (BIO-RAD) at constant voltage (80 V). Separated proteins were transferred to nitrocellulose membrane (Immobilon™-P, Millipore) by electro-blotting (30V overnight at 4° C.) in transfer buffer (50 mM Tris, 384 mM glycine, 20% methanol, 0.01% SDS). Following blocking (1×PBS, 0.5% Tween 20, 4% [w/v] non-fat milk), target proteins were detected using a 1:2,500 dilution of specific primary antibodies. Anti-mouse or anti-rabbit IgG antibodies conjugated with horseradish peroxidase (Santa Cruz) were used to visualize immunoreactive proteins at 1:2,500 dilutions using enhanced chemiluminescence (Pierce).
FIG. 14: (A) E-Br1 or E-Br2 attenuates mitogen-stimulated CCNE gene induction. Sub-confluent WI-38 cells were serum-starved for 72 h. Following DNA enzyme transfection, the cultures were re-stimulated with serum and allowed to proliferate. After 20 h, cells were harvested and total RNA extracted for semi-quantitative RT-PCR to assess CCNE expression. β-actin was included as an internal control. PCR products were resolved by agarose gel electrophoresis and ethidium bromide-stained DNA bands were visualized under UV. […] Sub-confluent WI-38 cells were serum-starved for 72 h. Following transfection with DNA enzyme, the cultures were allowed to proliferate. After 20 h, cells were harvested for western blot (WB) analysis of cyclin E, Cdk4, cyclin D1 and p27^KIP1 expression. Coomassie-stained protein was included as control for normalization.

| Substance | colony forming potential (WI-38 cells) | serum-induced CCNE gene activation (CCNE gene) | expression of Cdk4, cyclin D1 and p27^KIP1 [1] | mitogen-induced cyclin E protein expression [1] |
| --- | --- | --- | --- | --- |
| 5′-T TACCCAACAGGCTAGCTACAACGAATATCACA-3′ (DNA TTACCCAACAGGCTAGCTACAACGAATATCACA; DNA, 3' [invdT], backbone not given here) [E-Br2] | significantly reduced colony forming potential | suppressed | without altering the expression | prevents mitogen-induced cyclin E expression |
| 5′-T TGCTCAGCAGGCTAGCTACAACGACTTGCTCA-3′ (DNA TTGCTCAGCAGGCTAGCTACAACGACTTGCTCA; DNA, 3' [invdT], backbone not given here) [E-Br1] | significantly reduced colony forming potential | suppressed | without altering the expression | prevents mitogen-induced cyclin E expression |
